Laboratory results as given in patent US20240002369A1, “NOVEL TREATMENTS OF ATTENTION DEFICIT/HYPERACTIVITY DISORDER” (priority 2020, published 2024).
Entries after “also recorded” stand apart in the source; their conditions may differ. Where a name gives a salt, the structure may show the parent alone. Marks after values point to notes of the source that are not given here.

Legend:
Lphn3.1 HOM larvae [1] = assay: Sleep behavior in freely moving zebrafish larvae during lights-off period; conditions: for comparison of all sleep parameters (summary): 1, 10, 30 μM, FIG. 6A-6D
Description: This assay provides a measure of muscle weakness and/or motor coordination, which co-occurs with certain sleep states, but can also occur independently of sleep. […] Thus, to evaluate the effect of moxonidine on sleep behavior, the sleep behavior in freely moving zebrafish (Lphn3.1 HOM larvae) following treatment with moxonidine, a comparator compound, or negative control (i.e. saline or vehicle control) was assessed in line with the criteria described by Levitas-Djerbi et al., (Curr Opin Neurobiol. 2017; 44:89-93) and Sorribes et al., (Front Neural Circuits. 2013 Nov. 13; 7:178).
In brief, sleep behavior was recorded in a 96-well plate and analysed during the lights-off period (22:00-08:00). First, all behavior was dichotomized into 1-s bins of movement or non-movement. […] All activity that was slower than that threshold was computed as non-movement. Thus, rendering a dichotomized record of the behavior in either movement or non-movement. Next, the dichotomized record was transformed into bins of sleep and wake. Following previously established sleep criteria in adults, and adapted to larval fish (Yokogawa et al., PLoS Biol. 2007; 5(10):2379-97, Sorribes et al., Front Neural Circuits. 2013; 7:178, and Sigurgeirsson et al., Behav Brain Res. 2013; 256:377-90), six or more consecutive 1-s bins of non-movement were counted as sleep and all else was counted as wake. That is, the seventh second and above were classified as sleep; all other bouts were classified as wake. Once the number of sleep and wake bouts was calculated, five different sleep parameters were assessed (i.e. sleep fragmentation, sleep ratio, velocity during sleep, wake bout duration(s), and sleep bout duration(s)). Sleep fragmentation was defined as the number of transitions between sleep and wake bouts per hour. Sleep ratio was calculated as the percentage of total night time that the fish was considered asleep. Velocity during sleep (mm/s) was defined as the average velocity throughout the night time. Wake bout duration(s) was defined as the average length of wake bouts. Sleep bout duration(s) was defined as the average length of sleep bouts.

Lphn3.1 HOM larvae [2] = assay: Motor assay in the zebrafish model of ADHD (Lphn3.1 knock-out larvae); type: in vivo, zebrafish (Danio rerio)
Text: Zebrafish larvae carrying a knock-out of the Latrophilin3 (Lphn3.1) gene were generated by CRISPR-Cas9. Zebrafish were kept in a 14:10 light: dark cycle in 3 or 10 L multi tank constant flow system (Aquatic Habitats, Apopka, FL, USA). For behavioral analysis a total number of 881, 6 days-post fertilization (dpf) embryos carrying a homozygous knock-out of the Lphn3.1 gene were used in the study. Adult zebrafish with a homozygous knock-out of the Lphn3.1 gene and adult zebrafish with a wild-type Lphn3.1 gene were fed three times a day on a variable diet of TetraMin flakes (Tetra Holding GmbH, Melle, Germany) and live Artemia. […]
Following a 24 hour acclimation period, behavioral recordings were made. Locomotor activity was recorded between […] and 6.00 pm at 6 dpf during alternating light and dark conditions, presented in 30-minute intervals. For this period, average distance moved (mm) by the larvae was calculated as the mean of the total distance swum during five separate 30-minute intervals immediately after transition of light conditions. […]
Data was obtained using EthoVision XT (Version Nov. 5, 2016, Noldus) and exported to Microsoft Excel for analysis. […] For analysis of Lphn 3.1 larvae treated with moxonidine statistical differences were evaluated using one-way ANOVA with Dunnett two-sided post hoc analysis. […]

[3] = Tan et al., Proc Natl Acad Sci USA 2002; cited from earlier work
Lphn3.1 WT larvae = assay: Motor assay in wild-type zebrafish larvae; type: in vivo, zebrafish (Danio rerio)
[4] = tested on: scopolamine-induced cognitive dysfunction; assay: T-maze alternation test, scopolamine-induced cognitive dysfunction model; type: in vivo, Male CD-1 mice
Text: Male CD-1 mice aged 4-5 weeks were allocated to a T-maze to perform the T-maze alternation test as described by Andriambeloson et al., 2014 (Pharma Res Per, 2 (4), 2014, e00048, included herein by reference). In brief, each mouse was placed in a T-maze consisting of a main stem and two arms. The experiment consisted of one “forced-choice” trial and 14 “free-choice” trials to evaluate the number of spontaneous alternations.

[5] = 1 uM vs HOM - DMSO, average length of sleep bouts
[6] = 1 uM vs HOM - DMSO, average length of wake bouts
[7] = 1 uM vs HOM - DMSO, average velocity throughout the night time
[8] = 1 uM vs HOM - DMSO, share of total night time asleep
[9] = 1 uM vs HOM - DMSO, transitions between sleep and wake bouts per hour, lights-off 22:00-08:00
[10] = 10 uM vs HOM - DMSO, average length of sleep bouts
[11] = 10 uM vs HOM - DMSO, average length of wake bouts
[12] = 10 uM vs HOM - DMSO, average velocity throughout the night time
[13] = 10 uM vs HOM - DMSO, share of total night time asleep
[14] = 10 uM vs HOM - DMSO, transitions between sleep and wake bouts per hour, lights-off 22:00-08:00
[15] = 30 uM vs HOM - DMSO, average length of sleep bouts
[16] = 30 uM vs HOM - DMSO, average length of wake bouts
[17] = 30 uM vs HOM - DMSO, average velocity throughout the night time
[18] = 30 uM vs HOM - DMSO, share of total night time asleep
[19] = 30 uM vs HOM - DMSO, transitions between sleep and wake bouts per hour, lights-off 22:00-08:00
[20] = Lphn3.1 HOM, zebrafish, in vivo, 10 h, 1 uM
[21] = Lphn3.1 HOM, zebrafish, in vivo, 10 h, 10 uM
[22] = Lphn3.1 HOM, zebrafish, in vivo, 10 h, 30 uM

SMILES	SleepDuration (sleep bout duration) Mean Difference (I − J) (Lphn3.1 HOM larvae [1]; [5])	WakeDuration (wake bout duration) Mean Difference (I − J) (Lphn3.1 HOM larvae [1]; [6])	Velocity (during sleep) Mean Difference (I − J) (Lphn3.1 HOM larvae [1]; [7])	SleepRatio Mean Difference (I − J) (Lphn3.1 HOM larvae [1]; [8])	SleepFragmentation Mean Difference (I − J) (Lphn3.1 HOM larvae [1]; [9])	SleepDuration (sleep bout duration) Mean Difference (I − J) (Lphn3.1 HOM larvae [1]; [10])	WakeDuration (wake bout duration) Mean Difference (I − J) (Lphn3.1 HOM larvae [1]; [11])	Velocity (during sleep) Mean Difference (I − J) (Lphn3.1 HOM larvae [1]; [12])	SleepRatio Mean Difference (I − J) (Lphn3.1 HOM larvae [1]; [13])	SleepFragmentation Mean Difference (I − J) (Lphn3.1 HOM larvae [1]; [14])	SleepDuration (sleep bout duration) Mean Difference (I − J) (Lphn3.1 HOM larvae [1]; [15])	WakeDuration (wake bout duration) Mean Difference (I − J) (Lphn3.1 HOM larvae [1]; [16])	Velocity (during sleep) Mean Difference (I − J) (Lphn3.1 HOM larvae [1]; [17])	SleepRatio Mean Difference (I − J) (Lphn3.1 HOM larvae [1]; [18])	SleepFragmentation Mean Difference (I − J) (Lphn3.1 HOM larvae [1]; [19])	comparison of all sleep parameters (summary) (Lphn3.1 HOM larvae [1])	velocity in wild-type larvae (Lphn3.1 WT larvae)	further results
Clc1cccc(Cl)c1N=C1NCCN1 [Clonidine, clonidine]	−4.177* s	2.095* s	.08382* mm/s	−.12630*	11.79*	−4.388* s	2.1* s	.09470* mm/s	−.13226*	12.98*	−6.197* s	8.132* s	.23026* mm/s	−.24115*	−7.699	drastically altered all sleep parameters at the majority of doses tested		
N=C(N)NC(=O)Cc1c(Cl)cccc1Cl [Guanfacine, guanfacine]																		SleepDuration (sleep bout duration) Mean Difference (I − J) (Lphn3.1 HOM larvae [1]; [20]): 3.64* s; SleepFragmentation Mean Difference (I − J) (Lphn3.1 HOM larvae [1]; [20]): −1.812; SleepRatio Mean Difference (I − J) (Lphn3.1 HOM larvae [1]; [20]): .12336*; Velocity (during sleep) Mean Difference (I − J) (Lphn3.1 HOM larvae [1]; [20]): −.08559* mm/s; WakeDuration (wake bout duration) Mean Difference (I − J) (Lphn3.1 HOM larvae [1]; [20]): −3.163* s; SleepDuration (sleep bout duration) Mean Difference (I − J) (Lphn3.1 HOM larvae [1]; [21]): 1.224 s; SleepFragmentation Mean Difference (I − J) (Lphn3.1 HOM larvae [1]; [21]): 7.4424; SleepRatio Mean Difference (I − J) (Lphn3.1 HOM larvae [1]; [21]): .06927*; Velocity (during sleep) Mean Difference (I − J) (Lphn3.1 HOM larvae [1]; [21]): −.07521* mm/s; WakeDuration (wake bout duration) Mean Difference (I − J) (Lphn3.1 HOM larvae [1]; [21]): −2.542* s; SleepDuration (sleep bout duration) Mean Difference (I − J) (Lphn3.1 HOM larvae [1]; [22]): 2.369* s; SleepFragmentation Mean Difference (I − J) (Lphn3.1 HOM larvae [1]; [22]): 1.559; SleepRatio Mean Difference (I − J) (Lphn3.1 HOM larvae [1]; [22]): .09806*; Velocity (during sleep) Mean Difference (I − J) (Lphn3.1 HOM larvae [1]; [22]): −.08512* mm/s; WakeDuration (wake bout duration) Mean Difference (I − J) (Lphn3.1 HOM larvae [1]; [22]): −2.735* s
COc1nc(C)nc(Cl)c1NC1=NCCN1 [Moxonidine, moxonidine]	-1.586 s	0.8031 s	−0.02492 mm/s	−0.04916	3.2294	-1.0974 s	-0.00334 s	−.07640* mm/s	−0.02153	5.727	-1.57 s	3.687 s	−.05041* mm/s	−0.06247	−1.7339	only a slight increase in velocity	increase velocity	average distance moved over the five lights-on phases (Lphn3.1 HOM larvae [2]; 1 μM, 10 μM or 30 μM vs vehicle control (DMSO), FIG. 3): differed significantly from vehicle control and untreated larvae; also recorded: Statistically significant differences; behavioral deficits (24 hour velocity spectrogram) (Lphn3.1 HOM larvae [2]; 10 μM, Lphn3.1 HOM larvae, FIG. 5): rectifies the behavioral deficits; sedation in the rotarod assay [3]: less sedation compared to clonidine and brimonidine; behavioral parameters (24 hour velocity spectrogram) (Lphn3.1 WT larvae; 10 μM, FIG. 5): no effect on behavioral parameters; spontaneous alternation, dose dependence ([4]; 0.1 mg/kg, 0.3 mg/kg and 1 mg/kg, FIG. 4): dose-dependent increase in spontaneous alternation; spontaneous alternation ([4]; 0.3 mg/kg vs mice exposed to scopolamine, p<0.001): significant increased spontaneous alternation; spontaneous alternation ([4]; 1 mg/kg vs mice exposed to scopolamine, p<0.0001): significant increased spontaneous alternation
CNCC[C@@H](Oc1ccccc1C)c1ccccc1 [atomoxetine, atomoxetine hydrochloride]	8.266* s	−2.547* s	−.09320* mm/s	.18730*	−23.58*	6.306* s	-1.806 s	−.03944* mm/s	.15382*	−19.14*	9.808* s	−3.112* s	−.10640* mm/s	.22326*	−26.47*	drastically altered all sleep parameters at the majority of doses tested	increase velocity	spontaneous alternations, rescue of scopolamine effect ([4]; vs scopolamine-exposed mice, p<0.0001, FIG. 4): rescued
